Data from PubChem BioAssay AID434987 (Southern Research Specialized Biocontainment Screening …, 2010).
Active and inactive are the calls of the source. No rule for the calls is given here.

System: M. tuberculosis H37Rv growth inhibition with meropenem
Experiment: dose response, H37Rv, with and without meropenem (AID 434987);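 also: growth over 7 days at 37 °C before Alamar Blue read on day 9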
[1] = M. tuberculosis H37Rv growth inhibition, measured here: IC50 without meropenem
[2] = M. tuberculosis H37Rv growth inhibition, measured here: IC90 without meropenem
[3] = measured here: IC90 with meropenem

SMILES	IC50	IC50 [1]	IC90 [2]	IC90 [3]
CC(C)NC(=S)NN=C1c2ccccc2-c2ccccc21	35.7 µM (inactive)	58.2 µM	> 100 µM	> 100 µM
Cc1ccc2nc(-c3ccc(NC(=S)NC(=O)C(C)C)cc3)sc2c1	> 100 µM (inactive)	> 100 µM	> 100 µM	> 100 µM
O=C1NC(c2ccc(Br)cc2)Nc2sc3c(c21)CCC3 (configuration not stated)	> 100 µM (inactive)	> 100 µM	> 100 µM	> 100 µM
NC(=O)CN1C(=O)C(O)(CC(=O)/C=C\C=C\c2ccccc2)c2ccccc21 (configuration not stated)	> 100 µM (inactive)	> 100 µM	> 100 µM	> 100 µM
COc1ccc(Cl)cc1NC(=O)CN(C)C(=O)c1ccc(N2CCCCCC2)c([N+](=O)[O-])c1	> 100 µM (inactive)	> 100 µM	> 100 µM	> 100 µM
CCCC1=C/C(=C/c2ccc(-c3ccccc3OC)o2)C(=O)O1	29.3 µM (inactive)	55.5 µM	> 100 µM	> 100 µM
COc1ccc(NC(=O)CCC2CCCC2)cc1OC	> 100 µM (inactive)	> 100 µM	> 100 µM	> 100 µM
Cc1c(C(=O)NC(=S)Nc2ccccc2N2CCCC2)cccc1[N+](=O)[O-]	63.5 µM (inactive)	82.6 µM	> 100 µM	> 100 µM
Fc1ccc(NC(=S)NCc2cccs2)cc1	> 100 µM (inactive)	> 100 µM	> 100 µM	> 100 µM
CCCOc1ccc(C(=O)N/N=C/c2ccc(-c3ccc(S(=O)(=O)Nc4ncccn4)cc3)o2)cc1	22.4 µM (inactive)	39.8 µM	> 100 µM	26.1 µM
O=C(N/N=C/C(Br)=C\c1ccccc1)c1ccc2nc[nH]c2c1	30.4 µM	> 100 µM	> 100 µM	> 100 µM
O=C(c1cnn2c(C(F)(F)F)cc(-c3cccs3)nc12)N1CCN(C(c2ccccc2)c2ccccc2)CC1	26.6 µM (inactive)	32.5 µM	> 100 µM	> 100 µM
CC(=O)c1sc(N/N=C\c2ccc(N(C)C)cc2)nc1C	49.9 µM (inactive)	> 100 µM	> 100 µM	> 100 µM
COc1ccc(C(=O)Nc2ccc3nc(N4CCCCC4)cc(C)c3c2)c(OC)c1	5.19 µM	> 100 µM	> 100 µM	> 100 µM
CC(C)OC(=O)CSc1nc(N2CCOCC2)c2c(c1C#N)CC(C)(C)OC2	> 100 µM (inactive)	> 100 µM	> 100 µM	> 100 µM
Nc1nc(Sc2ncccc2[N+](=O)[O-])n[nH]1	21.6 µM (inactive)	37.4 µM	> 50 µM	77.1 µM
COc1ccc(NC(=O)CSc2nncn2C)c([N+](=O)[O-])c1	44.5 µM (inactive)	90.1 µM	> 100 µM	> 100 µM
COc1cccc(NC(=O)c2cc(-c3cccnc3)nc3c(Cl)cccc23)c1	> 100 µM (inactive)	> 100 µM	> 100 µM	> 100 µM
Cc1ccc(-n2ncc3c(=O)n(CC#N)cnc32)cc1C	20.9 µM	51.3 µM	> 100 µM	> 100 µM
CC(=O)n1cc([C@@H]2C=C(C(=O)N3CCN(Cc4ccc5c(c4)OCO5)CC3)O[C@H](OCCCCO)C2)c2ccccc21	> 100 µM (inactive)	84 µM	> 100 µM	> 100 µM

SMILES	IC50	IC50 [1]	IC90 [2]	IC90 [3]
CCOC(=O)c1cnc2cc(-c3ccc(C(C)(C)C)cc3)nn2c1N	0.899 µM	12.1 µM	> 100 µM	5.74 µM
Cc1cc(C)nc(SCC(=O)Nc2ccccc2[N+](=O)[O-])n1	14.4 µM (inactive)	27.9 µM	> 100 µM	> 100 µM
CC(C)CCN1CC(O)=C(c2nc3ccccc3[nH]2)C1=N	6.68 µM	73 µM	> 100 µM	> 100 µM
COc1cc(CNc2ccc(NC(C)=O)cc2)ccc1OCc1ccccc1C	> 100 µM (inactive)	> 100 µM	> 100 µM	> 100 µM
Cc1cccnc1NC(=S)NC(=O)c1cncc(Br)c1	4.68 µM	40.3 µM	> 100 µM	> 100 µM
Nc1c(C(=O)NC2CC2)c2nc3ccccc3nc2n1-c1ccc2c(c1)OCO2	95 µM (inactive)	88.5 µM	> 100 µM	> 100 µM
COc1cc(OC)cc(-c2nnc(NC(=O)CCS(=O)(=O)c3ccc(C)cc3)o2)c1	32.2 µM	> 100 µM	> 100 µM	> 100 µM
Cc1ccc(O)c(-c2cc(-c3ccccc3F)[nH]n2)c1	> 100 µM (inactive)	> 100 µM	> 100 µM	> 100 µM
O=C(N/N=C/c1ccc(-c2cccc(C(F)(F)F)c2)o1)c1ccccc1O	32.8 µM	> 100 µM	> 100 µM	> 100 µM
Cn1c(=O)c2[nH]c(CNCc3ccccc3Cl)nc2n(C)c1=O	37.1 µM	> 100 µM	> 100 µM	> 100 µM
C=CCSc1nc2c(c(-c3ccsc3)c1C#N)CN(C)CC2	50.6 µM (inactive)	65.7 µM	> 100 µM	55.1 µM
CCCOc1ccccc1NC(=O)/C=C/C(N)=O	13.4 µM (inactive)	26.8 µM	33.8 µM	27.7 µM
O=C(O)CCN1C(=O)/C(=C/c2ccc(-c3nc4ccccc4s3)o2)SC1=S	38.3 µM (inactive)	60.1 µM	> 100 µM	78.4 µM
O=C(Nc1ccccc1)Nc1csc2ccccc12	< 0.2 µM	23.9 µM	> 100 µM	20.9 µM
CCOC(=O)COc1nc(-c2ccc(Cl)cc2)cc(-c2ccco2)c1C#N	3.82 µM	> 100 µM	> 100 µM	> 100 µM
O=C(OCC(=O)c1ccc[nH]1)C1=COCCO1	18.3 µM	88.8 µM	> 100 µM	> 100 µM
O=C(CSc1ccc([N+](=O)[O-])cn1)Nc1ccc(N2CCOCC2)cc1	4.82 µM	17.6 µM	> 100 µM	> 100 µM
CC(C)CC(=O)NC(=S)Nc1ccc(N2CCN(C(=O)c3cccs3)CC2)cc1	> 100 µM (inactive)	> 100 µM	> 100 µM	> 100 µM
O=C(c1cccc(Cl)c1)N1CCN(Cc2ccccc2F)CC1	> 100 µM (inactive)	> 100 µM	> 100 µM	> 100 µM
CCOCC(=O)N1CCN(c2ccc(F)cc2)CC1	33.8 µM	84.1 µM	> 100 µM	> 100 µM

SMILES	IC50	IC50 [1]	IC90 [2]	IC90 [3]
COc1ccc2ccccc2c1/C=N/NC(=O)c1cccc(Br)c1	> 100 µM (inactive)	> 100 µM	> 100 µM	> 100 µM
CO/N=C(\C(=O)N[C@@H]1C(=O)N2C(C(=O)O)=C(COC(C)=O)CS[C@H]12)c1csc(N)n1 (stereo in doubt)	10.3 µM	> 100 µM	> 100 µM	41.7 µM
Cc1cccc(/C=N\NC(=O)c2csnn2)c1	39.5 µM	> 100 µM	> 100 µM	> 100 µM
COc1cc(NC(=S)NC(=O)c2cccs2)ccc1NC(=O)C(C)C	> 100 µM (inactive)	> 100 µM	> 100 µM	> 100 µM
Cc1ccc(C2=N/C(=C\c3cccc(F)c3)C(=O)O2)cc1	1.49 µM	7.03 µM	79.6 µM	4.02 µM
O=C1C(Cl)=C(N2CCCCCC2)C(=O)N1c1ccc(Br)cc1	7.59 µM (inactive)	18.3 µM	> 100 µM	19.4 µM
O=C(c1ccc(-c2ccc(Cl)cc2)o1)N1CCN(S(=O)(=O)c2cccs2)CC1	95.2 µM (inactive)	> 100 µM	> 100 µM	99.6 µM
Nc1c(C(=O)N2CCCC2)sc2nc3c(cc12)CCCCCC3	19.4 µM	92.2 µM	> 100 µM	> 100 µM
c1ccc(OCc2nnc(-c3ccccc3)o2)cc1	1.4 µM	80.4 µM	> 100 µM	> 100 µM
CCOC(=O)c1ccc(N2CN(CCc3ccccc3)CNC2=S)cc1	26.9 µM	91.5 µM	> 100 µM	> 100 µM
CCc1sc2nc(SCC(=O)Nc3cc(C)on3)n(-c3cccc(OC)c3)c(=O)c2c1C	> 100 µM (inactive)	> 100 µM	> 100 µM	> 100 µM
CCCC(C)NC(=O)c1ccc(OCc2ccc(Cl)cc2)c(OC)c1 (configuration not stated)	7.56 µM	36.2 µM	> 100 µM	11.6 µM
CC1(C)CN=C(Nc2nc3ccccc3s2)S1	29 µM	> 100 µM	> 100 µM	> 50 µM
CCn1c(=O)n(CC)c2cc(N3CCCC3)c(NC(=O)c3cc(Br)ccc3OC)cc21	> 100 µM (inactive)	> 100 µM	> 100 µM	> 100 µM
Cc1c(-c2ccccc2)sc(Br)c1C(=O)N1CCOCC1	> 100 µM (inactive)	> 100 µM	> 100 µM	> 100 µM
COc1cc(/C=C/c2ccc3cccc([N+](=O)[O-])c3n2)ccc1OCC(=O)O	6.21 µM	24.9 µM	62.5 µM	12 µM
N#Cc1c(C(F)(F)F)cc(-c2ccccc2)nc1SCc1nc(N)nc(N2CCOCC2)n1	> 100 µM (inactive)	> 100 µM	> 100 µM	> 100 µM
Cc1nnc(SCc2ccc(C(=O)Nc3cc(Cl)ccc3C)cc2)s1	> 100 µM (inactive)	> 100 µM	> 100 µM	> 100 µM
